Reference: PMC12169679 (Journal of Medicinal Chemistry, 2025)

Key:
[1] = in vitro; conditions: CD-1, mouse, microsomes, pH 7.4
[2] = tested on: EBOV-GP-pseudotype virus (pEBOV); test: microbe, parasite or virus in culture; conditions: Zaire ebolavirus; for EC50: Vero C1008, read-out: EC50 (pEBOV); for inhibition at 10 µM: Vero C1008, read-out: %inh@10 μM (pEBOV)
[3] = pH 7.4
[4] = PAMPA
[5] = CD-1, mouse, pH 7.4
[6] = tested on: EBOV-GP-pseudotype virus (pEBOV)
[7] = in vitro; conditions: for CC50 at 24 h: chlorocebus sabaeus; for CC50: African green monkey
[8] = tested on: wild-type EBOV (Orthoebolavirus zairense, Mayinga variant); conditions: for EC50: read-out: EC50 (EBOV)
[9] = tested on: VSV-G-pseudotype virus (pVSV-G); test: microbe, parasite or virus in culture; assay type: cell-based; conditions: Vesicular stomatitis virus; read-out: %inh@10µM (pVSV-G)
[10] = in vitro; conditions: human, microsomes, pH 7.4
[11] = in vitro; conditions: PAMPA, pH 7.4
[12] = tested on: A549 cells; conditions: cited from earlier work
[13] = molecular target: EBOV-GP protein (Zaire ebolavirus, UniProt Q05320); assay type: binding, Ebola virus
[14] = molecular target: EBOV-GPcl/NPC1-domain C interaction (Zaire ebolavirus, UniProt Q05320); assay type: binding; conditions: 50 μM
[15] = tested on: VeroE6 cells; conditions: cited from earlier work
[16] = tested on: EBOV-GP-pseudotype virus (pEBOV); conditions: cited from earlier work

Structure (SMILES): O=C(CCN1CCCC1)Nc1ccccc1Sc1cc(Cl)ccc1[N+](=O)[O-] [compound 12, N-(2-((5-Chloro-2-nitrophenyl)thio)phenyl)-3-(pyrrolidin-1-yl)propanamide]
- half-life at 10 µM [1]: 10 ± 3 min
- EC50 [2]: 4.9 µM
- metabolic stability in human liver microsomes CLint [3]: 12.5 ± 0.6 mL/min/mg protein
- prediction of CNS penetration [4]: SNC +
- metabolic stability in mouse liver microsomes CLint [5]: 260 ± 80 mL/min/mg protein
- SI (pEBOV) (CC50/EC50) [6]: 61.2
- CC50 at 24 h [7]: 300 µM
- EC50 (EBOV) [8]: inactive
- inhibition at 10 µM [9]: 36%
- half-life at 10 µM [10]: 46 ± 2 min

Structure (SMILES): CCn1cc(C(=O)O)c(=O)c2cc(F)c(N3CCNCC3)nc21 [Enoxacin, reference compound]
- prediction of CNS penetration [4]: CNS−
- Papp [11]: 1.2 ± 0.2 ×10⁻⁶ cm/s

Structure (SMILES): CN(C)CCCN1c2ccccc2Sc2ccccc21 [Promazine, reference compound]
- prediction of CNS penetration [4]: CNS+
- Papp [11]: 9.1 ± 1.3 ×10⁻⁶ cm/s

Structure (SMILES): CN(C)CCOc1ccc(/C(=C(/CCCl)c2ccccc2)c2ccccc2)cc1 [Toremifene, reference compound]
- EC50 [2]: 0.17 µM
- CC50 [12]: 16 µM
- SI (pEBOV) (CC50/EC50) [6]: d Toremifene was used as the reference of the assay EC50 = 0.17 μM (95% CI = 0.15–0.54 μM), CC50 (VeroE6 cells) = 10 μM, SI = 58.8 (lit^25: EC50 = 0.07 ± 0.05 μM, CC50 (A549 cells) = 16 μM, SI = 229).
- CC50 [7]: 10 µM

Structure (SMILES): O=C(CNCCC1CCN(Cc2ccccc2)CC1)Nc1ccccc1Nc1cc(Cl)ccc1[N+](=O)[O-] [compound 16, 2-((2-(1-Benzylpiperidin-4-yl)ethyl)amino)-N-(2-((5-chloro-2-nitrophenyl)amino)phenyl)acetamide]
- half-life at 10 µM [1]: 8 ± 1 min
- EC50 [2]: 2.43 µM
- metabolic stability in human liver microsomes CLint [3]: 12 ± 2 mL/min/mg protein
- increase in metabolic stability in human microsomes [3]: 105%
- prediction of CNS penetration [4]: SNC +
- metabolic stability in mouse liver microsomes CLint [5]: 310 ± 50 mL/min/mg protein
- STD-NMR competition with imipramine [13]: both compounds target the same binding site of EBOV-GP
- binding to EBOV-GP by STD-NMR [13]: binds to the protein
- CC50 at 24 h [7]: 10 µM
- EC50 [8]: 4.42 µM
- inhibition at 10 µM [9]: -44%
- half-life at 10 µM [10]: 47 ± 7 min
- effect on binding of EBOV-GP to NPC1 domain C (ELISA) [14]: interferes with the interaction between NPC1 and EBOV-GP

Structure (SMILES): NC(=O)c1nc(F)c[nH]c1=O [Favipiravir, reference compound]
- CC50 [15]: > 1000 µM

Structure (SMILES): O=C(CCNCCc1ccccc1)Nc1ccccc1Nc1cc(Cl)ccc1[N+](=O)[O-] [compound 19, N-(2-((5-Chloro-2-nitrophenyl)amino)phenyl)-3-(phenethylamino)propanamide]
- inhibition at 10 µM [2]: 15%
- antiviral activity against pEBOV, in words [6]: inactive
- CC50 at 24 h [7]: 15 µM

Structure (SMILES): O=C(CN1CCCCC1)Nc1ccccc1Sc1cc(Cl)ccc1[N+](=O)[O-] [compound 9, N-(2-((5-Chloro-2-nitrophenyl)thio)phenyl)-2-(piperidin-1-yl)acetamide]
- inhibition at 10 µM [2]: -10%
- antiviral activity against pEBOV, in words [6]: no activity
- CC50 [7]: > 200 µM

Structure (SMILES): O=C(CCNCCC1CCN(Cc2ccccc2)CC1)Nc1ccccc1Sc1cc(Cl)ccc1[N+](=O)[O-] [compound 15, 3-((2-(1-Benzylpiperidin-4-yl)ethyl)amino)-N-(2-((5-chloro-2-nitrophenyl)thio)phenyl)propanamide]
- inhibition at 10 µM [2]: < 75%
- antiviral activity against pEBOV, in words [6]: no activity
- CC50 at 24 h [7]: 9 µM

Structure (SMILES): O=C(CN1CCCC1)Nc1ccccc1Sc1cc(Cl)ccc1[N+](=O)[O-] [compound 7, N-(2-((5-Chloro-2-nitrophenyl)thio)phenyl)-2-(pyrrolidin-1-yl)acetamide]
- inhibition at 10 µM [2]: -2%
- antiviral activity against pEBOV, in words [6]: inactive
- CC50 [7]: > 200 µM
- EC50 (EBOV) [8]: inactive

Structure (SMILES): CCN(CC)CC(=O)Nc1ccccc1Sc1cc(Cl)ccc1[N+](=O)[O-] [compound 8, N-(2-((5-Chloro-2-nitrophenyl)thio)phenyl)-2-(diethylamino)acetamide]
- inhibition at 10 µM [2]: -5%
- antiviral activity against pEBOV, in words [6]: inactive
- CC50 [7]: > 200 µM

Structure (SMILES): O=C(CN1CCCC1)NNc1ccccc1Sc1cc(Cl)ccc1[N+](=O)[O-] [SC073]
- prediction of CNS penetration [4]: SNC +
- SI (CC50/EC50) of the hits, pEBOV [16]: 27.5
- CC50 [15]: 80 µM
- SI (CC50/EC50), replicative EBOV [8]: 18.6
- EC50 [8]: 4.3 µM

Structure (SMILES): CN1C(C(=O)Nc2ccccn2)=C(O)c2ccccc2S1(=O)=O [Piroxicam, reference compound]
- prediction of CNS penetration [4]: CNS−
- Pe ([4]; pH 7.4): 1.6 ± 0.7

Structure (SMILES): O=C(CCNCCc1ccccc1)Nc1ccccc1Sc1cc(Cl)ccc1[N+](=O)[O-] [compound 14, N-(2-((5-Chloro-2-nitrophenyl)thio)phenyl)-3-(phenethylamino)propanamide]
- inhibition at 10 µM [2]: 23%
- antiviral activity against pEBOV, in words [6]: no activity
- CC50 [7]: > 200 µM

Structure (SMILES): CCN(CC)CC(=O)NNc1ccccc1Sc1cc(Cl)ccc1[N+](=O)[O-] [SC198]
- prediction of CNS penetration [4]: SNC +
- SI (CC50/EC50) of the hits, pEBOV [16]: 12.4
- CC50 [15]: 50 µM
- SI (CC50/EC50), replicative EBOV [8]: 8.3
- EC50 [8]: 6 µM

Structure (SMILES): O=C(CCN1CCCC1)Nc1ccccc1Nc1cc(Cl)ccc1[N+](=O)[O-] [compound 17, N-(2-((5-Chloro-2-nitrophenyl)amino)phenyl)-3-(pyrrolidin-1-yl)propanamide]
- half-life at 10 µM [1]: 20 ± 3 min
- EC50 [2]: 8.94 µM
- metabolic stability in human liver microsomes CLint [3]: 4.19 ± 0.02 mL/min/mg protein
- increase in metabolic stability in human microsomes [3]: 195%
- prediction of CNS penetration [4]: SNC +
- metabolic stability in mouse liver microsomes CLint [5]: 130 ± 17 mL/min/mg protein
- SI (pEBOV) (CC50/EC50) [6]: 27.9
- CC50 at 24 h [7]: 250 µM
- SI (CC50/EC50), replicative EBOV [8]: 38.5
- EC50 [8]: 6.48 µM
- inhibition at 10 µM [9]: -133%
- half-life at 10 µM [10]: 136.2 ± 0.5 min

Structure (SMILES): CCN(CC)CCC(=O)Nc1ccccc1Sc1cc(Cl)ccc1[N+](=O)[O-] [compound 13, N-(2-((5-Chloro-2-nitrophenyl)thio)phenyl)-3-(diethylamino)propanamide]
- half-life at 10 µM [1]: 6.4 ± 0.9 min
- EC50 [2]: 8.87 µM
- metabolic stability in human liver microsomes CLint [3]: 36 ± 8 mL/min/mg protein
- prediction of CNS penetration [4]: SNC +
- metabolic stability in mouse liver microsomes CLint [5]: 390 ± 60 mL/min/mg protein
- SI (pEBOV) (CC50/EC50) [6]: 16.9
- CC50 at 24 h [7]: 150 µM
- SI (CC50/EC50), replicative EBOV [8]: 3.3
- EC50 [8]: 44.5 µM
- inhibition at 10 µM [9]: -5%
- half-life at 10 µM [10]: 16 ± 3 min

Structure (SMILES): O=C(CNCCC1CCN(Cc2ccccc2)CC1)Nc1ccccc1Sc1cc(Cl)ccc1[N+](=O)[O-] [compound 11, 2-((2-(1-Benzylpiperidin-4-yl)ethyl)amino)-N-(2-((5-chloro-2-nitrophenyl)thio)phenyl)acetamide]
- half-life at 10 µM [1]: 6 ± 1 min
- EC50 [2]: 5.61 µM
- metabolic stability in human liver microsomes CLint [3]: 25 ± 4 mL/min/mg protein
- prediction of CNS penetration [4]: SNC +
- metabolic stability in mouse liver microsomes CLint [5]: 390 ± 70 mL/min/mg protein
- SI (pEBOV) (CC50/EC50) [6]: 26.7
- CC50 at 24 h [7]: 150 µM
- SI (CC50/EC50), replicative EBOV [8]: 28.8
- EC50 [8]: 5.2 µM
- inhibition at 10 µM [9]: 38%
- half-life at 10 µM [10]: 23 ± 4 min

Structure (SMILES): CCN(CC)CCC(=O)Nc1ccccc1Nc1cc(Cl)ccc1[N+](=O)[O-] [compound 18, N-(2-((5-Chloro-2-nitrophenyl)amino)phenyl)-3-(diethylamino)propanamide]
- half-life at 10 µM [1]: 14 ± 6 min
- EC50 [2]: 7.65 µM
- metabolic stability in human liver microsomes CLint [3]: 9.1 ± 0.7 mL/min/mg protein
- increase in metabolic stability in human microsomes [3]: 294%
- prediction of CNS penetration [4]: SNC +
- metabolic stability in mouse liver microsomes CLint [5]: 180 ± 70 mL/min/mg protein
- SI (pEBOV) (CC50/EC50) [6]: 19.6
- CC50 at 24 h [7]: 150 µM
- SI (CC50/EC50), replicative EBOV [8]: 5.2
- EC50 [8]: 28.7 µM
- inhibition at 10 µM [9]: 9%
- half-life at 10 µM [10]: 63 ± 5 min

Structure (SMILES): O=C(CNCc1ccccc1)Nc1ccccc1Sc1cc(Cl)ccc1[N+](=O)[O-] [compound 10, 2-(Benzylamine)-N-(2-((5-chloro-2-nitrophenyl)thio)phenyl)acetamide]
- inhibition at 10 µM [2]: 18%
- antiviral activity against pEBOV, in words [6]: no activity
- CC50 [7]: > 200 µM

Structure (SMILES): Cn1c(=O)c2c(ncn2C)n(C)c1=O [Caffeine, reference compound]
- prediction of CNS penetration [4]: CNS−
- Papp [11]: 1.5 ± 0.3 ×10⁻⁶ cm/s
